What follows are compounds tested against T1, Solute carrier family 22 member 12 (Homo sapiens, UniProt Q96S37) (assay: [14C]-Uric Uric acid working stock was made by addition of radiolabeled compound to a final concentration of 120 nM in chloride-free buffer. In all wells, the final assay concentration of solvent (DMSO) was 0.25%; the final assay concentration of [14C]-uric acid was 30 nM in chloride-free buffer and the final compound of formula (I) concentrations ranged from 0 to 10 uM.).
T1 sequence (Q96S37 whole entry): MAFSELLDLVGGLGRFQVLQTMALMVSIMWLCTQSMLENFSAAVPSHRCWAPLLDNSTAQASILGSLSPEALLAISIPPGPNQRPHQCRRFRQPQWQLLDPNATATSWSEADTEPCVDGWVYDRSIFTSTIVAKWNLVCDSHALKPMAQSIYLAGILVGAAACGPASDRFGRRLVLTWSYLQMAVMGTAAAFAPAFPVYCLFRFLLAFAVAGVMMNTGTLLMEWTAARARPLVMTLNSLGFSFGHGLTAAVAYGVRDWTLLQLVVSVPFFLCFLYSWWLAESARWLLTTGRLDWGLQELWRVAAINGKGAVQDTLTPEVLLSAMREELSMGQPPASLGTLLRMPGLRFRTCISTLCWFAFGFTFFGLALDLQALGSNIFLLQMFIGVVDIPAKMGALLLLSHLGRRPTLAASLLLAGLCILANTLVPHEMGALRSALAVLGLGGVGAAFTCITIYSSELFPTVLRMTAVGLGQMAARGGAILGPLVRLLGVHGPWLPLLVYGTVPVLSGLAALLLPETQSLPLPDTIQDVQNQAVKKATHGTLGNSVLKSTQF
Compound `N#Cc1cc(S(=O)(=O)Nc2ccc(F)cn2)ccc1Oc1cnc(N2CCC2)c(Cl)c1` has an IC50 of 1000 nM. `Cc1ccc(F)c(Oc2ccc(S(=O)(=O)Nc3ccc(F)cn3)cc2C#N)c1` showed an IC50 of 117 nM. `CN(C)c1ncc(Oc2ccc(S(=O)(=O)Nc3ccc(F)cn3)cc2C#N)cc1Cl` was tested, and the IC50 was 472 nM. Compound `Cc1ccc(Cl)c(Oc2ccc(S(=O)(=O)Nc3ccc(F)cn3)cc2C#N)c1` has an IC50 of 196 nM. `N#Cc1cc(S(=O)(=O)Nc2ccc(F)cn2)ccc1Oc1ccc(Cl)cc1Cl` was tested, and the IC50 was 84 nM. `N#Cc1cc(S(=O)(=O)Nc2ccc(F)cn2)ccc1Oc1cnc(N)c(Cl)c1` showed an IC50 of 87 nM. Compound `N#Cc1ccccc1Oc1ccc(S(=O)(=O)Nc2ccc(F)cn2)cc1C#N` has an IC50 of 495 nM. With `N#Cc1ccc(Oc2ccc(S(=O)(=O)Nc3ccc(F)cn3)cc2C#N)c(F)c1` the IC50 was 47 nM. In the case of `CNc1ncc(Oc2ccc(S(=O)(=O)Nc3ccc(F)cn3)cc2C#N)cc1Cl`, the IC50 is reported as 258 nM.

— ChEMBL document CHEMBL3638639, “Chemical compounds” (2015)
